Legend:
Xrn1 (Kl Xrn1) = molecular target: T1, Xrn1 (Kl Xrn1) (Kluyveromyces lactis, UniProt Q6CJ09); test: inhibition of decay of […]-labelled capped RNA, gel; assay type: biochemical; settings: FAD-capped or NAD-capped RNA as substrate
T1 construct: gene KLLA0_F22385g; recombinant, Ni-NTA purified

RNase AM (yciV) = molecular target: T2, RNase AM (yciV) (Escherichia coli, UniProt P77766); test: thermal shift assay; assay type: binding; settings: Mn2+-loaded enzyme; data not shown
T2 construct: gene rnm; full-length, His-tagged, expressed in E. coli BL21 (DE3) Rosetta with 2,2'-bipyridyl and MnSO4; Ni-NTA and gel filtration
T2 sequence (P77766 1-293): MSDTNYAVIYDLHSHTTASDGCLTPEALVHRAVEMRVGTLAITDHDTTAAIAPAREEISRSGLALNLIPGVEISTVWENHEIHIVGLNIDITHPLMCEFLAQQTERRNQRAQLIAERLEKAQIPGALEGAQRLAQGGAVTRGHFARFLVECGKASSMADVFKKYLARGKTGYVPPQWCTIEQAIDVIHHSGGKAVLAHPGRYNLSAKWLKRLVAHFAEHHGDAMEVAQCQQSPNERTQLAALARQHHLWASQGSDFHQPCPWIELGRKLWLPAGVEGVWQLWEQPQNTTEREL

Kl Xrn1 = molecular target: T3, Kl Xrn1 (Kluyveromyces lactis, UniProt Q6CJ09 1-1245); test: EMSA; stable complex, minimally competed by total yeast RNA; EMSA: 10 mM Tris-HCl pH 7.5, 150 mM KCl, 1.5 mM MgCl2, 0.5 mM DTT, on ice 30 min, 5 pmol RNA with 2.5-7.5 pmol Xrn1, 6% gel in 0.5x TBE; FcRAP: 1x lysis buffer, 4 C, 90 min; settings: protein: recombinant; tags: C-terminal 6xHis; label: 32P uniform; single strand
T3 sequence: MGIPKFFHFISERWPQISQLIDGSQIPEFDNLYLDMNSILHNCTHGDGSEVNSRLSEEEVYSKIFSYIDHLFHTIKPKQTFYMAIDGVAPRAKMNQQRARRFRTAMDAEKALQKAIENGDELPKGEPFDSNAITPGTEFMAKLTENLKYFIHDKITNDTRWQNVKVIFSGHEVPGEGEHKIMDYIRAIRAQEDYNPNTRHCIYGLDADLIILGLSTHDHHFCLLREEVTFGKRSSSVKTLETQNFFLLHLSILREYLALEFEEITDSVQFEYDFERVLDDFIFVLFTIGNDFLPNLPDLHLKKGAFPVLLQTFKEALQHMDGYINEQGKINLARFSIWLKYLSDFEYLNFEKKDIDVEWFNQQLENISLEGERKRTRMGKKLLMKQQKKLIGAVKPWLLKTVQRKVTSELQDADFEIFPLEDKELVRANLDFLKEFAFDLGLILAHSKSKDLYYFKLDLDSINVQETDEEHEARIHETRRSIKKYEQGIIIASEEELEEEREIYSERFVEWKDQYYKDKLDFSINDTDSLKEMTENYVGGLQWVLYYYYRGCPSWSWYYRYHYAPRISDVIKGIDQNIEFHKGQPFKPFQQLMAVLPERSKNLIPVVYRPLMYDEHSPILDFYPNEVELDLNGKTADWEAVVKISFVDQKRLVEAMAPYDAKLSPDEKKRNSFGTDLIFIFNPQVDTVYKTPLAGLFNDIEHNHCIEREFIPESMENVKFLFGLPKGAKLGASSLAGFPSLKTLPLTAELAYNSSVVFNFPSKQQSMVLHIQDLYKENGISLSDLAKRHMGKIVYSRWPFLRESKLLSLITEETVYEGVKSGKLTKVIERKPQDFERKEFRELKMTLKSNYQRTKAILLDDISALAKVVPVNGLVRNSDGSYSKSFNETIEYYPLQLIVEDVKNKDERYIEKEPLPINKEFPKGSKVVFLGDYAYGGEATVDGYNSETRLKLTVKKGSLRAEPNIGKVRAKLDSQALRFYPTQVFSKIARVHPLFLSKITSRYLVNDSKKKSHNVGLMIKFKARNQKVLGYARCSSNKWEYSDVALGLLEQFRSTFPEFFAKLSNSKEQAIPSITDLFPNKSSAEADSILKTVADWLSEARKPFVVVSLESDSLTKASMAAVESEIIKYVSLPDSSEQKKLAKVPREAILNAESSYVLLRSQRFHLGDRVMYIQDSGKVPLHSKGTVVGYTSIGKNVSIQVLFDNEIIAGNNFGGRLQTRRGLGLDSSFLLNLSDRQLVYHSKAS

Question: Which inhibition (Xrn1 (Kl Xrn1)) does the source give for `Cc1cc2nc3c(=O)[nH]c(=O)nc-3n(C[C@H](O)[C@H](O)[C@H](O)COP(=O)(O)OP(=O)(O)OC[C@H]3O[C@@H](n4cnc5c(N)ncnc54)[C@H](O)[C@@H]3OP(=O)(O)O)c2cc1C` [FAD3′P] here?
Answer: Its inhibition is “the effect was more pronounced with the FAD-capped RNA mimic, FAD3′P”.

Question: Which results are given for `Cc1cc2nc3c(=O)[nH]c(=O)nc-3n(C[C@H](O)[C@H](O)[C@H](O)COP(=O)(O)OP(=O)(O)OC[C@H]3O[C@@H](n4cnc5c(N)ncnc54)[C@H](O)[C@@H]3O)c2cc1C` [FAD]?
Answer: thermal shift (RNase AM (yciV)): competent for binding FAD (as determined by thermal shift assay; data not shown); inhibition (Xrn1 (Kl Xrn1); free FAD): inhibition was nevertheless detected when using higher concentration of FAD

Question: Does AGUUGGUGGUUGUUGUGUGUUUGUGGUUGGUUUGUUUGGC (ssRNA, 5' FAD cap) [FAD-capped RNA (FAD-40)] bind (Kl Xrn1)?
Answer: Result: binds

Question: Does AGUUGGUGGUUGUUGUGUGUUUGUGGUUGGUUUGUUUGGC (ssRNA, 5' NAD cap) [NAD-capped RNA (NAD-40)] bind (Kl Xrn1)?
Answer: Result: binds

Reference: article PMC9410882, “Identification of a novel deFADding activity in human, yeast and bacterial 5′ to 3′ exoribonucleases” (Nucleic Acids Research, 2022)
